pIC50: −log10 of the molar value.
Tested on: PANC-1 complex spheroid growth, percent test/control
Test: Anticancer human tumor PANC-1 cell line growth inhibition [Asc];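 further: spheroids exposed to agents for 7 days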;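 on viability, T/C: percent viability relative to DMSO vehicle wells taken as 100%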
Conditions: for pIC50: curve of first compound; for viability, T/C: stronger effect = lower value; active means viability on the fitted dose curve at most 10% of control; inactive means the rest
In short: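 Complex solid-tumor spheroids incorporating human endothelial and mesenchymal stem cells received single agents or combinations over half-log dilution ranges anchored to clinical Cmax.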

[1] = second compound 0.0316 µM, first compound 0.0316 µM
[2] = second compound 0.0316 µM, first compound 0.1 µM
[3] = second compound 0.0316 µM, first compound 0.316 µM
[4] = second compound 0.0316 µM, first compound 1 µM
[5] = second compound 0.1 µM, first compound 0.0316 µM
[6] = second compound 0.1 µM, first compound 0.1 µM
[7] = second compound 0.1 µM, first compound 0.316 µM
[8] = second compound 0.1 µM, first compound 1 µM
[9] = second compound 0.316 µM, first compound 0.0316 µM
[10] = second compound 0.316 µM, first compound 0.1 µM
[11] = second compound 0.316 µM, first compound 0.316 µM
[12] = second compound 0.316 µM, first compound 1 µM
[13] = second compound 1 µM, first compound 0.0316 µM
[14] = second compound 1 µM, first compound 0.1 µM
[15] = second compound 1 µM, first compound 0.316 µM
[16] = second compound 1 µM, first compound 1 µM
[17] = second compound 3.16 µM, first compound 0.0316 µM
[18] = second compound 3.16 µM, first compound 0.1 µM
[19] = second compound 3.16 µM, first compound 0.316 µM
[20] = second compound 3.16 µM, first compound 1 µM
[21] = second compound 10 µM, first compound 0.0316 µM
[22] = second compound 10 µM, first compound 0.1 µM
[23] = second compound 10 µM, first compound 0.316 µM
[24] = second compound 10 µM, first compound 1 µM

C#Cc1c(F)ccc2cc(O)cc(-c3ncc4c(N5CC6CCC(C5)N6)nc(OCC56CCCN5CC(F)C6)nc4c3F)c12 (stereo unspecified) + Cc1c(S(C)(=O)=O)c(-c2cc(F)cc(N3CCN(c4ccc(NS(=O)(=O)c5ccc(NC(CCN6CCC(C(=O)OCCCP(=O)(O)O)CC6)CSc6ccccc6)c(S(=O)(=O)C(F)(F)F)c5)cc4)CC3)c2)c(-c2ccc(Cl)cc2)n1C(C)C
inactive: viability, T/C [1] 86.6% | viability, T/C [2] 84% | viability, T/C [3] 81.4% | viability, T/C [4] 87.2% | viability, T/C (second compound 0.0316 µM, first compound 3.16 µM) 83.5% | viability, T/C (second compound 0.0316 µM, first compound 10 µM) 72.6% | viability, T/C [5] 84.6% | viability, T/C [6] 80.2% | viability, T/C [7] 74.8% | viability, T/C [8] 80.9% | viability, T/C (second compound 0.1 µM, first compound 3.16 µM) 78% | viability, T/C (second compound 0.1 µM, first compound 10 µM) 75.3% | viability, T/C [9] 88.7% | viability, T/C [10] 77.5% | viability, T/C [11] 76.2% | viability, T/C [12] 74% | viability, T/C (second compound 0.316 µM, first compound 3.16 µM) 88.2% | viability, T/C (second compound 0.316 µM, first compound 10 µM) 69.8% | viability, T/C [13] 80.2% | viability, T/C [14] 75.6% | viability, T/C [15] 72.6% | viability, T/C [16] 67.4% | viability, T/C (second compound 1 µM, first compound 3.16 µM) 73.7% | viability, T/C (second compound 1 µM, first compound 10 µM) 55.3% | viability, T/C [17] 72.4% | viability, T/C [18] 62.9% | viability, T/C [19] 59.9% | viability, T/C [20] 60.1% | viability, T/C (second compound 3.16 µM, first compound 3.16 µM) 59% | viability, T/C (second compound 3.16 µM, first compound 10 µM) 56.8% | viability, T/C [21] 114% | viability, T/C [22] 103% | viability, T/C [23] 101% | viability, T/C [24] 85.5% | viability, T/C (second compound 10 µM, first compound 3.16 µM) 84.9% | viability, T/C (second compound 10 µM, first compound 10 µM) 67.9%
< 5.00: pIC50 (second compound 0.0316 µM) | pIC50 (second compound 0.1 µM) | pIC50 (second compound 0.316 µM) | pIC50 (second compound 1 µM) | pIC50 (second compound 3.16 µM) | pIC50 (second compound 10 µM)

CNC(C)C(=O)NC1CN(S(=O)(=O)c2cccc(S(=O)(=O)N3CCC4CCC(C(=O)NC(c5ccccc5)c5ccccc5)N4C(=O)C(NC(=O)C(C)NC)C3)c2)CCC2CCC(C(=O)NC(c3ccccc3)c3ccccc3)N2C1=O (stereo unspecified) + Cc1c(S(C)(=O)=O)c(-c2cc(F)cc(N3CCN(c4ccc(NS(=O)(=O)c5ccc(NC(CCN6CCC(C(=O)OCCCP(=O)(O)O)CC6)CSc6ccccc6)c(S(=O)(=O)C(F)(F)F)c5)cc4)CC3)c2)c(-c2ccc(Cl)cc2)n1C(C)C
inactive: viability, T/C (second compound 0.0316 µM, first compound 0.00316 µM) 100% | viability, T/C (second compound 0.0316 µM, first compound 0.01 µM) 92.3% | viability, T/C [1] 97.5% | viability, T/C [2] 94.9% | viability, T/C [3] 98.6% | viability, T/C [4] 91.8% | viability, T/C (second compound 0.1 µM, first compound 0.00316 µM) 96.6% | viability, T/C (second compound 0.1 µM, first compound 0.01 µM) 98.4% | viability, T/C [5] 105% | viability, T/C [6] 93.8% | viability, T/C [7] 98.6% | viability, T/C [8] 96.9% | viability, T/C (second compound 0.316 µM, first compound 0.00316 µM) 98.3% | viability, T/C (second compound 0.316 µM, first compound 0.01 µM) 113% | viability, T/C [9] 97.4% | viability, T/C [10] 101% | viability, T/C [11] 103% | viability, T/C [12] 91.9% | viability, T/C (second compound 1 µM, first compound 0.00316 µM) 101% | viability, T/C (second compound 1 µM, first compound 0.01 µM) 113% | viability, T/C [13] 105% | viability, T/C [14] 102% | viability, T/C [15] 109% | viability, T/C [16] 88.9% | viability, T/C (second compound 3.16 µM, first compound 0.00316 µM) 104% | viability, T/C (second compound 3.16 µM, first compound 0.01 µM) 104% | viability, T/C [17] 103% | viability, T/C [18] 94.9% | viability, T/C [19] 98.5% | viability, T/C [20] 90.7% | viability, T/C (second compound 10 µM, first compound 0.00316 µM) 173% | viability, T/C (second compound 10 µM, first compound 0.01 µM) 183% | viability, T/C [21] 173% | viability, T/C [22] 160% | viability, T/C [23] 185% | viability, T/C [24] 158%
< 6.00: pIC50 (second compound 0.0316 µM) | pIC50 (second compound 0.1 µM) | pIC50 (second compound 0.316 µM) | pIC50 (second compound 1 µM) | pIC50 (second compound 3.16 µM) | pIC50 (second compound 10 µM)

Cc1nc(N2CCC3(CC2)COC(C)C3N)c(CO)nc1Sc1ccnc(N)c1Cl (stereo unspecified) + Cc1c(S(C)(=O)=O)c(-c2cc(F)cc(N3CCN(c4ccc(NS(=O)(=O)c5ccc(NC(CCN6CCC(C(=O)OCCCP(=O)(O)O)CC6)CSc6ccccc6)c(S(=O)(=O)C(F)(F)F)c5)cc4)CC3)c2)c(-c2ccc(Cl)cc2)n1C(C)C
inactive: viability, T/C (second compound 0.0316 µM, first compound 0.00949 µM) 87.6% | viability, T/C (second compound 0.0316 µM, first compound 0.03 µM) 96.6% | viability, T/C (second compound 0.0316 µM, first compound 0.0949 µM) 88.2% | viability, T/C (second compound 0.0316 µM, first compound 0.3 µM) 94.1% | viability, T/C (second compound 0.0316 µM, first compound 0.949 µM) 89.5% | viability, T/C (second compound 0.0316 µM, first compound 3 µM) 95.2% | viability, T/C (second compound 0.1 µM, first compound 0.00949 µM) 92.8% | viability, T/C (second compound 0.1 µM, first compound 0.03 µM) 88.3% | viability, T/C (second compound 0.1 µM, first compound 0.0949 µM) 83.3% | viability, T/C (second compound 0.1 µM, first compound 0.3 µM) 90.1% | viability, T/C (second compound 0.1 µM, first compound 0.949 µM) 87.8% | viability, T/C (second compound 0.1 µM, first compound 3 µM) 84.7% | viability, T/C (second compound 0.316 µM, first compound 0.00949 µM) 103% | viability, T/C (second compound 0.316 µM, first compound 0.03 µM) 93.4% | viability, T/C (second compound 0.316 µM, first compound 0.0949 µM) 89.8% | viability, T/C (second compound 0.316 µM, first compound 0.3 µM) 87.6% | viability, T/C (second compound 0.316 µM, first compound 0.949 µM) 91.8% | viability, T/C (second compound 0.316 µM, first compound 3 µM) 86.7% | viability, T/C (second compound 1 µM, first compound 0.00949 µM) 102% | viability, T/C (second compound 1 µM, first compound 0.03 µM) 91.8% | viability, T/C (second compound 1 µM, first compound 0.0949 µM) 85.9% | viability, T/C (second compound 1 µM, first compound 0.3 µM) 84.5% | viability, T/C (second compound 1 µM, first compound 0.949 µM) 88.2% | viability, T/C (second compound 1 µM, first compound 3 µM) 85.5% | viability, T/C (second compound 3.16 µM, first compound 0.00949 µM) 101% | viability, T/C (second compound 3.16 µM, first compound 0.03 µM) 94.5% | viability, T/C (second compound 3.16 µM, first compound 0.0949 µM) 86.2% | viability, T/C (second compound 3.16 µM, first compound 0.3 µM) 92.9% | viability, T/C (second compound 3.16 µM, first compound 0.949 µM) 84.6% | viability, T/C (second compound 3.16 µM, first compound 3 µM) 77.8% | viability, T/C (second compound 10 µM, first compound 0.00949 µM) 175% | viability, T/C (second compound 10 µM, first compound 0.03 µM) 177% | viability, T/C (second compound 10 µM, first compound 0.0949 µM) 161% | viability, T/C (second compound 10 µM, first compound 0.3 µM) 161% | viability, T/C (second compound 10 µM, first compound 0.949 µM) 164% | viability, T/C (second compound 10 µM, first compound 3 µM) 147%
< 5.52: pIC50 (second compound 0.0316 µM) | pIC50 (second compound 0.1 µM) | pIC50 (second compound 0.316 µM) | pIC50 (second compound 1 µM) | pIC50 (second compound 3.16 µM) | pIC50 (second compound 10 µM)
